From patent US20140050810A1, “ANTI-OBESITY COMPOSITION COMPRISING LYCIUM CHINENSIS LEAF EXTRACT AND BETAINE AS ACTIVE INGREDIENT” (BIONUTRIGEN CO., LTD., priority 2012, published 2014)
Several values for one entry are separate records, joined by “and”; a condition that tells them apart may be missing. Identical values can stand only once. Marks after values point to notes of the source that are not given here.

Assays:
[1] = system: high-fat diet-induced obesity models; experiment: Subcutaneous fat and total fat in high-fat diet-induced obesity mice; assay type: in vivo, C57BL/6 mice; details: JBB21 1, LWE 2, JBB21+LWE 1+2 g/kg
Description: (§1) Betaine (JBB21), a Lycium chinensis hot water extract powder (LWE), or a mixture thereof (JBB21+LWE) was orally administered five times a week to high-fat diet-induced obesity models and their effects on obesity, hyperlipidemia and fatty liver were analyzed. JBB21 and LWE were purchased as white and brown powders, respectively, from Bionutrigen, and stored at room temperature before use in the experiment.
(§2) C57BL/6, specific pathogen-free (SPF) mice (male, six weeks old, Division of Biomedical Research, Korea Research Institute of Bioscience and Biotechnology) were used as the test animals.
(§3) For comparison, a negative control and an obese group (high fat diet, HFD) were allowed to freely eat a radiation-sterilized control diet (CD, 10% kcal, Research Diets) and a high fat diet (HFD, 60% Kcal, Research Diets, supplied by Central Lab. Animal), respectively, during the administration of JBB21, LWE, or JBB21+LWE.
(§4) JBB21, LWE, and JBB21+LWE were dissolved in 3.D.W at concentrations of 100 mg/mL, 200 mg/mL, and 100+200 mg/mL, respectively, and each of the solutions was orally administered at a dose of 10 mL/kg five times a week for 56 days.
Meanwhile, subcutaneous fat was also measured.
In addition, total fat was measured in the mice administered with JBB21, LWE, or JBB21+LWE.

[2] = system: high-fat diet-induced obesity models; experiment: Weight change in high-fat diet-induced obesity mice; assay type: in vivo, C57BL/6 mice; details: JBB21 1, LWE 2, JBB21+LWE 1+2 g/kg
Description: as §1, §2, §3, §4
The negative control (CD), the obese group (HFD), and the test groups (JBB21, LWE, and JBB21+LWE) were monitored three times a week for weight change and diet intake before and during administration.
Each of the solutions of JBB21 and LWE was administered at a single dose of 10 mL/kg five times a week for 56 days. […] The LWE (2 g/kg) group decreased in weight by 6.5% by the last day, but no significant changes in weight had been observed during the test period.

[3] = system: high-fat diet-induced obesity models; experiment: Blood leptin, adiponectin and triglyceride levels in high-fat diet-induced obesity mice; assay type: in vivo, C57BL/6 mice; details: JBB21 1, LWE 2, JBB21+LWE 1+2 g/kg
Description: as §1, §2, §3, §4
Blood samples taken on 56 days after the administration of a mixture of JBB21 and LWE were placed in heparin-coated tubes and stored on ice, followed by centrifugation at 6,000 rpm for 5 min. The plasma thus obtained was analyzed for levels of blood leptin, a hormone marker for obesity, adiponectin, an anti-obesity hormone, and triglyceride levels, using an automated biochemistry analyzer (AU400, Olympus, Japan). Leptin and adiponectin vary in secretion and function depending on the level of fat accumulated in the body. The preventive and therapeutic effects of the mixture according to the present invention were determined in view of plasma levels of leptin and adiponectin.
In this regard, the blood levels of the hormones were measured using Mouse Leptin ELISA kit (Cat. #: MOB00) and Mouse Adiponectin ELISA kit (Cat. #: MRP300), respectively, both commercially available from R&D Systems.

[4] = Anti-obesity effect of betaine and Lycium chinensis leaf extract powder in human body; assay type: in vivo; details: Betaine 3 g twice/day 43 days
Description: In order to evaluate the anti-obesity effect of Lycium chinensis leaf extract powder and betaine, subjects' weight, body mass index (BMI), body fat, body fat percentage, and muscle mass were measured prior to the administration of betaine and Lycium chinensis leaf extract powder. Betaine and Lycium chinensis leaf extract powder were separately dissolved in water and administered at a single dose of 3 g and 10 g, respectively, twice a day just before breakfast and supper.
In consideration of their component properties, the Lycium chinensis leaf extract powder, which comprised various components, was administered for 22 days while 43 days was also allocated for the administration of betaine, a single compound. Preventive and therapeutic effects of the two ingredients on obesity were evaluated in view of changes in weight, BMI, body fat, body fat percentage, and muscle mass.

[5] = system: high-fat diet-induced obesity models; experiment: Effect on liver function: liver weight, hepatic triglyceride, GOT, GPT, pathology in high-fat diet-induced obesity mice; assay type: in vivo, C57BL/6 mice
Description: as §1, §2, §3, §4
Mice administered with JBB21, LWE, and JBB21+LWE were euthanized with CO2 gas and underwent laparotomy to excise the livers therefrom. The livers were weighed with a chemical balance, and compared with those from the control and the obese groups. A part of the liver was frozen in liquid nitrogen (LN2) to measure triglyceride and cholesterol contents while the other part was fixed in formalin for pathological analysis.
The frozen liver tissues were homogenized by a homogenizer, followed by centrifugation. The supernatant was analyzed for hepatic triglyceride and cholesterol levels using a triglyceride quantification kit (Cat. #: K622-100), and a cholesterol/cholesteryl ester quantification kit (Cat. #: K603-100), respectively, both commercially available from Biovision.
For pathological analysis, the liver tissue fixed in formalin was embedded in a paraffin block, and sectioned, and stained with H&E (Hematoxylin & Eosin) before observation under an optical microscope (FIG. 1).

[6] = HFD mice, oral five times a week for 56 days
[7] = compared to the obese group (Vehicle Control)
[8] = L. chinensis leaf extract powder 10 g twice/day 22 days
[9] = L. chinensis leaf extract powder 10 g twice/day 22 days, baseline
[10] = HFD mice, JBB21 1, LWE 2, JBB21+LWE 1+2 g/kg
[11] = vs. Vehicle Control, JBB21 1, LWE 2, JBB21+LWE 1+2 g/kg

## C[N+](C)(C)CC(=O)O [JBB21, betaine]
[1]; [6]
  Subcutaneous Fat: 2975.4 ± 530.4 mg
  Total Fat: 7030.2 ± 947.9 mg
[1]; [7]
  Subcutaneous Fat IR(%): 14.2%
  Total Fat IR(%): 4.3% and 4.2%
[2]; day 0, HFD (60% Kcal) mice, oral five times a week, n = 10, in g (unit assumed)
  Weight, day 0 after treatment: 31.1 ± 1.5
[2]; day 11, HFD (60% Kcal) mice, oral five times a week, n = 10, in g (unit assumed)
  Weight, day 11 after treatment: 31.9 ± 1.6
[2]; day 11, vs. Vehicle Control (obese group)
  Weight IR(%), day 11: 5.6%
[2]; day 21, HFD (60% Kcal) mice, oral five times a week, n = 10, in g (unit assumed)
  Weight, day 21 after treatment: 34.5 ± 1.8
[2]; day 21, vs. Vehicle Control (obese group)
  Weight IR(%), day 21: 5.8%
[2]; day 30, HFD (60% Kcal) mice, oral five times a week, n = 10, in g (unit assumed)
  Weight, day 30 after treatment: 36.1 ± 2.3
[2]; day 30, vs. Vehicle Control (obese group)
  Weight IR(%), day 30: 8.8%
[2]; day 39, HFD (60% Kcal) mice, oral five times a week, n = 10, in g (unit assumed)
  Weight, day 39 after treatment: 38.4 ± 2.7
[2]; day 39, vs. Vehicle Control (obese group)
  Weight IR(%), day 39: 9.6* %
[2]; day 51, HFD (60% Kcal) mice, oral five times a week, n = 10, in g (unit assumed)
  Weight, day 51 after treatment: 40.9 ± 3.1
[2]; day 51, vs. Vehicle Control (obese group)
  Weight IR(%), day 51: 9.6* %
[2]; day 56, HFD (60% Kcal) mice, oral five times a week, n = 10, in g (unit assumed)
  Weight, day 56 after treatment: 42.0 ± 3.4
[2]; day 56, vs. Vehicle Control (obese group)
  Weight IR(%) / weight loss, day 56 (last day): 9.4%
[3]; [7]
  Leptin IR(%): 9.1% and 9.2%
[3]; plasma, day 56, HFD mice
  Leptin (blood): 134.3 ng/mL
  Triglyceride (blood): 74.7 mg/dL
[3]; vs. Vehicle Control
  Triglyceride (blood) IR(%): 22.3%
[4]
  BMI, After Administration: 29.3
  BMI, Reduction: 2.7%
[4]; [8]
  Body Fat, After Administration: 25.9
  Body Fat, Change: -1.7 kg
  Body Fat, Reduction: 6.2%
  Body Fatness (body fat percentage), After Administration: 30.7
  Body Fatness (body fat percentage), Change: -1%
  Body Fatness (body fat percentage), Reduction: 3.2%
  Muscle Mass, After Administration: 55.5
  Muscle Mass, Change: -0.7 kg
  Muscle Mass, Reduction: 1.3%
  Weight, After Administration: 84.0 kg
  Weight, Change: -3.0 kg
  Weight, Reduction: 3.5%
[4]; [9]
  Body Fat, Before Administration: 27.6
  Body Fatness (body fat percentage), Before Administration: 31.7
  Muscle Mass, Before Administration: 56.2
  Weight, Before Administration: 87.0 kg
[4]; baseline
  BMI, Before Administration: 30.1
[5]; HFD mice, 56 days, JBB21 1, LWE 2, JBB21+LWE 1+2 g/kg
  Liver Wt: 1511.2 mg
[5]; HFD mice, H&E-stained liver tissue (FIG. 1)
  liver appearance / hepatic fat deposits (in words): clean and healthy livers almost free of fat deposits
[5]; [10]
  GOT: 57.1 IU/L
  GPT: 39.8 IU/L
[5]; compared to the obese group (Vehicle Control), JBB21 1, LWE 2, JBB21+LWE 1+2 g/kg
  GOT IR(%): 59.8%
[5]; liver homogenate supernatant, HFD mice, JBB21 1, LWE 2, JBB21+LWE 1+2 g/kg
  Hepatic triglyceride: 3.1389 nmol/mL
[5]; relative to the obese group (Vehicle Control), JBB21 1, LWE 2, JBB21+LWE 1+2 g/kg
  Liver Wt IR(%): 25.4%
[5]; [11]
  GPT IR(%): 67.2%
  Hepatic triglyceride IR(%): 10.8%
